# ChEMBL document CHEMBL4024740, “Isocostunolide inhibited glioma stem cell by suppression proliferation and inducing caspase dependent apoptosis” (Bioorg Med Chem Lett, 2017)
# Active and inactive are the calls of the source. No cut-off for these calls is given here.
# Columns and labels:
# GSC3 [1] = assay: Growth inhibition of human GSC3 cells at 10 ug/ml; assay type: functional, cell-based
# [2] = Induction of apoptosis in human GSC18 cells assessed as late apoptotic cells at 1 ug/ml after 8 hrs by Annexin V-FITC/propidium iodide staining based flow cytometric method (reference value: 2.54%); assay type: functional
# GSC18 [3] = assay: Growth inhibition of human GSC18 cells at 10 ug/ml; assay type: functional, cell-based
# [4] = Induction of apoptosis in human GSC3 cells assessed as viable cells at 2 ug/ml after 8 hrs by Annexin V-FITC/propidium iodide staining based flow cytometric method (reference value: 98.8%); assay type: functional; settings: GSC-3, 8 h, read-out: Activity
# [5] = Induction of apoptosis in human GSC3 cells assessed as late apoptotic cells at 1 ug/ml after 8 hrs by Annexin V-FITC/propidium iodide staining based flow cytometric method (reference value: 0.373%); assay type: functional
# GSC18 [6] = assay: Cytotoxicity against human GSC18 cells assessed as suppression of DNA synthesis at 5 ug/ml after 8 hrs by BrdU/DAPI staining based immunofluorescence assay; assay type: functional, cell-based
# [7] = Induction of apoptosis in human GSC18 cells assessed as early apoptotic cells at 2 ug/ml after 8 hrs by Annexin V-FITC/propidium iodide staining based flow cytometric method (reference value: 7.73%); assay type: functional
# GSC18 [8] = assay: Induction of apoptosis in human GSC18 cells assessed as increase in cleaved caspase-3 at 5 ug/ml after 8 hrs by DAPI staining based immunofluorescence assay; assay type: functional, cell-based
# GSC12 = assay: Growth inhibition of human GSC12 cells at 10 ug/ml; assay type: functional, cell-based
# [9] = Induction of apoptosis in human GSC18 cells assessed as late apoptotic cells at 2 ug/ml after 8 hrs by Annexin V-FITC/propidium iodide staining based flow cytometric method (reference value: 2.54%); assay type: functional
# GSC18 [10] = assay: Cytotoxicity against human GSC18 cells assessed as cell rounding at 5 ug/ml measured after 8 hrs; assay type: functional, cell-based
# [11] = Induction of apoptosis in human GSC18 cells assessed as late apoptotic cells at 5 ug/ml after 8 hrs by Annexin V-FITC/propidium iodide staining based flow cytometric method (reference value: 2.54%); assay type: functional
# [12] = Induction of apoptosis in human GSC18 cells assessed as late apoptotic cells at 1 ug/ml after 8 hrs by Annexin V-FITC/propidium iodide staining based flow cytometric method (reference value: 4.25%); assay type: functional
# [13] = Induction of apoptosis in human GSC18 cells assessed as late apoptotic cells at 5 ug/ml after 8 hrs by Annexin V-FITC/propidium iodide staining based flow cytometric method (reference value: 4.25%); assay type: functional
# GSC3 [14] = assay: Cytotoxicity against human GSC3 cells assessed as cell rounding at 5 ug/ml measured after 8 hrs; assay type: functional, cell-based
# [15] = Induction of apoptosis in human GSC18 cells assessed as viable cells at 2 ug/ml after 8 hrs by Annexin V-FITC/propidium iodide staining based flow cytometric method (reference value: 85.5%); assay type: functional; settings: GSC18, 8 h, read-out: Activity
# [16] = Induction of apoptosis in human GSC18 cells assessed as viable cells at 1 ug/ml after 8 hrs by Annexin V-FITC/propidium iodide staining based flow cytometric method (reference value: 85.5%); assay type: functional; settings: GSC18, 8 h, read-out: Activity
# GSC18 [17] = assay: Inhibition of colony formation in human GSC18 cells assessed as reduction in numbers of clonal sphere at 5 ug/ml after 10 days by crystal violet staining based assay; assay type: functional, cell-based
# GSC3 [18] = assay: Cytotoxicity against human GSC3 cells assessed as cell shrinkage at 5 ug/ml measured after 8 hrs; assay type: functional, cell-based
# [19] = Cytotoxicity against human GSC12 cells after 72 hrs by MTS assay; assay type: functional, cell-based; settings: GSC12, 72 h
# [20] = Induction of apoptosis in human GSC3 cells assessed as late apoptotic cells at 5 ug/ml after 8 hrs by Annexin V-FITC/propidium iodide staining based flow cytometric method (reference value: 0.373%); assay type: functional
# [21] = Cytotoxicity against human GSC3 cells after 72 hrs by MTS assay; assay type: functional, cell-based; settings: GSC-3, 72 h
# [22] = Cytotoxicity against human GSC18 cells after 72 hrs by MTS assay; assay type: functional, cell-based; settings: GSC18, 72 h
# [23] = Induction of apoptosis in human GSC3 cells assessed as viable cells at 1 ug/ml after 8 hrs by Annexin V-FITC/propidium iodide staining based flow cytometric method (reference value: 98.8%); assay type: functional; settings: GSC-3, 8 h, read-out: Activity
# GSC18 [24] = assay: Inhibition of colony formation in human GSC18 cells assessed as clonal sphere damage at 5 ug/ml after 10 days by crystal violet staining based assay; assay type: functional, cell-based
# [25] = Induction of apoptosis in human GSC3 cells assessed as late apoptotic cells at 1 ug/ml after 8 hrs by Annexin V-FITC/propidium iodide staining based flow cytometric method (reference value: 0.603%); assay type: functional
# [26] = Cytotoxicity against human HAC cells after 72 hrs by MTS assay; assay type: cell-based
# GSC3 [27] = assay: Inhibition of colony formation in human GSC3 cells assessed as reduction in numbers of clonal sphere at 5 ug/ml after 10 days by crystal violet staining based assay; assay type: functional, cell-based
# [28] = Induction of apoptosis in human GSC18 cells assessed as early apoptotic cells at 5 ug/ml after 8 hrs by Annexin V-FITC/propidium iodide staining based flow cytometric method (reference value: 7.73%); assay type: functional
# GSC3 [29] = assay: Cytotoxicity against human GSC3 cells assessed as suppression of DNA synthesis at 5 ug/ml after 8 hrs by BrdU/DAPI staining based immunofluorescence assay; assay type: functional, cell-based
# [30] = Induction of apoptosis in human GSC18 cells assessed as late apoptotic cells at 2 ug/ml after 8 hrs by Annexin V-FITC/propidium iodide staining based flow cytometric method (reference value: 4.25%); assay type: functional
# HEK-293T = assay: Cytotoxicity against human 293T cells after 72 hrs by MTS assay; assay type: cell-based
# GSC3 [31] = assay: Cytotoxicity against human GSC3 cells assessed as cell detachment at 5 ug/ml measured after 8 hrs; assay type: functional, cell-based
# [32] = Induction of apoptosis in human GSC3 cells assessed as early apoptotic cells at 1 ug/ml after 8 hrs by Annexin V-FITC/propidium iodide staining based flow cytometric method (reference value: 0.186%); assay type: functional
# GSC18 [33] = assay: Cytotoxicity against human GSC18 cells assessed as cell shrinkage at 5 ug/ml measured after 8 hrs; assay type: functional, cell-based
# GSC3 [34] = assay: Inhibition of colony formation in human GSC3 cells assessed as clonal sphere damage at 5 ug/ml after 10 days by crystal violet staining based assay; assay type: functional, cell-based
# GSC3 [35] = assay: Induction of apoptosis in human GSC3 cells assessed as increase in cleaved caspase-3 at 5 ug/ml after 8 hrs by DAPI staining based immunofluorescence assay; assay type: functional, cell-based
# [36] = Induction of apoptosis in human GSC3 cells assessed as early apoptotic cells at 2 ug/ml after 8 hrs by Annexin V-FITC/propidium iodide staining based flow cytometric method (reference value: 0.186%); assay type: functional
# [37] = Induction of apoptosis in human GSC3 cells assessed as late apoptotic cells at 2 ug/ml after 8 hrs by Annexin V-FITC/propidium iodide staining based flow cytometric method (reference value: 0.373%); assay type: functional
# [38] = Induction of apoptosis in human GSC3 cells assessed as early apoptotic cells at 5 ug/ml after 8 hrs by Annexin V-FITC/propidium iodide staining based flow cytometric method (reference value: 0.186%); assay type: functional
# [39] = Induction of apoptosis in human GSC18 cells assessed as early apoptotic cells at 1 ug/ml after 8 hrs by Annexin V-FITC/propidium iodide staining based flow cytometric method (reference value: 7.73%); assay type: functional
# [40] = Induction of apoptosis in human GSC18 cells assessed as viable cells at 5 ug/ml after 8 hrs by Annexin V-FITC/propidium iodide staining based flow cytometric method (reference value: 85.5%); assay type: functional; settings: GSC18, 8 h, read-out: Activity
# [41] = Induction of apoptosis in human GSC3 cells assessed as late apoptotic cells at 2 ug/ml after 8 hrs by Annexin V-FITC/propidium iodide staining based flow cytometric method (reference value: 0.603%); assay type: functional
# [42] = Induction of apoptosis in human GSC3 cells assessed as late apoptotic cells at 5 ug/ml after 8 hrs by Annexin V-FITC/propidium iodide staining based flow cytometric method (reference value: 0.603%); assay type: functional
# [43] = Induction of apoptosis in human GSC3 cells assessed as viable cells at 5 ug/ml after 8 hrs by Annexin V-FITC/propidium iodide staining based flow cytometric method (reference value: 98.8%); assay type: functional; settings: GSC-3, 8 h, read-out: Activity
# GSC18 [44] = assay: Cytotoxicity against human GSC18 cells assessed as cell detachment at 5 ug/ml measured after 8 hrs; assay type: functional, cell-based
structure (smiles),measurement,setting,value
C=C1C(=O)O[C@@H]2/C=C(\C)CCC/C(C)=C/C[C@@H]12,growth inhibition (GI),GSC3 [1],Active
same,Activity,[2],30%
same,growth inhibition (GI),GSC18 [3],Active
same,viability at 2 µg/mL,[4],91.4%
same,Activity,[5],4.3%
same,Activity,GSC18 [6],Active
same,Activity,[7],3.28%
same,Activity,GSC18 [8],Active
same,growth inhibition (GI),GSC12,Active
same,Activity,[9],17.1%
same,Activity,GSC18 [10],Active
same,Activity,[11],35.2%
same,Activity,[12],17.3%
same,Activity,[13],21.1%
same,Activity,GSC3 [14],Active
same,viability at 2 µg/mL,[15],57.5%
same,viability at 1 µg/mL,[16],51.2%
same,inhibition,GSC18 [17],Active
same,Activity,GSC3 [18],Active
same,IC50,[19],2.61 mg/L
same,Activity,[20],22.4%
same,IC50,[21],2.8 mg/L
same,IC50,[22],1.07 mg/L
same,viability at 1 µg/mL,[23],94.7%
same,inhibition,GSC18 [24],Active
same,Activity,[25],0.942%
same,IC50,[26],7.42 mg/L
same,inhibition,GSC3 [27],Active
same,Activity,[28],4.1%
same,Activity,GSC3 [29],Active
same,Activity,[30],22.1%
same,IC50,HEK-293T,7.61 mg/L
same,Activity,GSC3 [31],Active
same,Activity,[32],0.096%
same,Activity,GSC18 [33],Active
same,inhibition,GSC3 [34],Active
same,Activity,GSC3 [35],Active
same,Activity,[36],1.06%
same,Activity,[37],4%
same,Activity,[38],3.98%
same,Activity,[39],1.54%
same,viability at 5 µg/mL,[40],39.6%
same,Activity,[41],3.53%
same,Activity,[42],54.3%
same,viability at 5 µg/mL,[43],19.2%
same,Activity,GSC18 [44],Active
